Test [1] deals with subclones of RKO colon adenocarcinoma cells (RKOp27 or RKOp21) arrested by Ponasterone A. Kind of test: Alamar Blue cell viability assay, cell cycle specific mode of action: cells arrested by ectopic p27Kip1 induced by Ponasterone A versus proliferating cells. Format: cell-based. The note with it: Homo sapiens, RKO p27 induced (arrested) cells, 10 μM Ponasterone A, 72 hours, value = class bound given in Table A, read-out: −logIC50 RKO p27 induced (arrested) (converted). In outline:
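Viability of proliferating versus Ponasterone A (10 μM)-arrested RKOp27/RKOp21 cells after 72 h compound exposure at 37° C, in quadruplicate. Read-out is Alamar Blue fluorescence (544/590 nm) normalised to untreated cells = 100%; values as −log IC50.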

In test [2] the test system is RKO (RKOp27) human colon adenocarcinoma cells. Kind of test: Alamar Blue cell viability assay, anti-proliferative/cytotoxic activity on proliferating RKO subclones. Format: cell-based. The note with it: RKOp27, 72 h, RKO p27 uninduced (proliferating) cells, value = class bound given in Table A, read-out: −logIC50 RKO p27 uninduced (proliferating) (converted). In outline: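 Alamar Blue fluorescence (ex 544, em 590 nm) after 72 h compound exposure at 37 °C, 5% CO2, normalised to untreated controls set at 100%. Cells were seeded at 5000 per well and dosed 24 h later with serial semi-logarithmic dilutions in 10% FCS DMEM, four replicates each. −log IC50 [mol/l] was derived from concentration-effect curves.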

Consider `CC(CO)NC(=O)OCC1CCc2c(sc(NC(=O)/C=C/c3cccnc3)c2C#N)C1` (stereo not drawn) [Example 102, (2-Hydroxy-1-methyl-ethyl)-carbamic acid 3-cyano-2-((E)-3-pyridin-3-yl-allanoylamino)-4,5,6,7-tetrahydro-benzo[b]thiophen-6-ylmethyl ester], for which the IC50 was at least 100 µM in test [1] and 0.501 to 2 µM in test [2].

On to `CCCNC(=O)OCC1CCc2c(sc(NC(=O)/C=C/c3cccnc3)c2C#N)C1` (stereo not drawn) [Example 103, Propyl-carbamic acid 3-cyano-2-((E)-3-pyridin-3-yl-allanoylamino)-4,5,6,7-tetrahydro-benzo[b]thiophen-6-ylmethyl ester], for which the IC50 is at least 100 µM in test [1] and 0.501 to 2 µM in test [2].

With `N#Cc1c(NC(=O)/C=C/c2cccnc2)sc2c1CCC(COC(=O)N1CCC[C@H]1CO)C2` (stereo partly drawn) [Example 104, 2-(S)-(Hydroxymethyl) pyrrolidine-1-carboxylic acid 3-cyano-2-((E)-3-pyridin-3-yl-allanoylamino)-4,5,6,7-tetrahydro-benzo[b]thiophen-6-ylmethyl ester], the IC50 is at least 100 µM in test [1] and at most 0.501 µM in test [2].

For the compound `N#Cc1c(NC(=O)/C=C/c2cccnc2)sc2c1CCC(COC(=O)NCC1CC1)C2` (stereo not drawn) [Example 105, Cyclopropylmethyl-carbamic acid 3-cyano-2-((E)-3-pyridin-3-yl-allanoylamino)-4,5,6,7-tetrahydro-benzo[b]thiophen-6-ylmethyl ester], the values for the IC50 in test [1] and in test [2] were at least 100 µM and at most 0.501 µM, respectively.

Regarding `N#Cc1c(NC(=O)/C=C/c2cccnc2)sc2c1CCC(OC(=O)N[C@H]1CC[C@H](O)CC1)C2` (stereo partly drawn) [Example 106, trans-4-Hydroxycyclohexyl-carbamic acid 3-cyano-2-((E)-3-pyridin-3-yl-allanoylamino)-4,5,6,7-tetrahydro-benzo[b]thiophen-6-yl ester], the results for the IC50 in test [1] and in test [2] were at least 100 µM and 0.501 to 2 µM, respectively.

For the compound `CCCNC(=O)OC1CCc2c(sc(NC(=O)/C=C/c3cccnc3)c2C#N)C1` (stereo not drawn) [Example 107, Propyl-carbamic acid 3-cyano-2-((E)-3-pyridin-3-yl-allanoylamino)-4,5,6,7-tetrahydro-benzo[b]thiophen-6-yl ester], the values for the IC50 in test [1] and in test [2] were at least 100 µM and at most 0.501 µM, respectively.

For `N#Cc1c(NC(=O)/C=C/c2cccnc2)sc2c1CCC(OC(=O)N1CCC[C@H]1CO)C2` (stereo partly drawn) [Example 108, 2-(S)-(Hydroxymethyl) pyrrolidine-1-carboxylic acid 3-cyano-2-((E)-3-pyridin-3-yl-allanoylamino)-4,5,6,7-tetrahydro-benzo[b]thiophen-6-yl ester], the values for the IC50 in test [1] and in test [2] were at least 100 µM and 0.501 to 2 µM, respectively.

In the case of `N#Cc1c(NC(=O)/C=C/c2cccnc2)sc2c1CCC(OC(=O)NCC1CC1)C2` (stereo not drawn) [Example 109, Cyclopropylmethyl-carbamic acid 3-cyano-2-((E)-3-pyridin-3-yl-allanoylamino)-4,5,6,7-tetrahydro-benzo[b]thiophen-6-yl ester], the IC50 in test [1] is at least 100 µM; in test [2] it was at most 0.501 µM.

With `N#Cc1c(NC(=O)/C=C/c2cccnc2)sc2c1CCC(OC(=O)NC1CCCC1)C2` (stereo not drawn) [Example 110, Cyclopentyl-carbamic acid 3-cyano-2-((E)-3-pyridin-3-yl-allanoylamino)-4,5,6,7-tetrahydro-benzo[b]thiophen-6-yl ester], the values for the IC50 in test [1] and in test [2] were at least 100 µM and at most 0.501 µM, respectively.

On to `N#Cc1c(NC(=O)/C=C/c2cccnc2)sc2c1CCC(OC(=O)N1CCCCC1)C2` (stereo not drawn) [Example 111, Piperidine-1-carboxylic acid 3-cyano-2-((E)-3-pyridin-3-yl-allanoylamino)-4,5,6,7-tetrahydro-benzo[b]thiophen-6-yl ester], for which the IC50 in test [1] is at least 100 µM; in test [2], at most 0.501 µM.

With `C=CCN(C)C(=O)OCC1CCc2c(sc(NC(=O)/C=C/c3cccnc3)c2C#N)C1` (stereo not drawn) [Example 112, Allyl-methyl-carbamic acid 3-cyano-2-((E)-3-pyridin-3-yl-allanoylamino)-4,5,6,7-tetrahydro-benzo[b]thiophen-6-ylmethyl ester], the results for the IC50 in test [1] and in test [2] were at least 100 µM and at most 0.501 µM, respectively.

Take `N#Cc1c(NC(=O)/C=C/c2cccnc2)sc2c1CCC(OC(=O)N1CCCC(O)C1)C2` (stereo not drawn) [Example 113, 3-Hydroxy-piperidine-1-carboxylic acid 3-cyano-2-((E)-3-pyridin-3-yl-allanoylamino)-4,5,6,7-tetrahydro-benzo[b]thiophen-6-yl ester]: the IC50 in test [1] is at least 100 µM; in test [2], at most 0.501 µM.

On to `N#Cc1c(NC(=O)/C=C/c2cccnc2)sc2c1CCC(COC(=O)N1CCC(O)CC1)C2` (stereo not drawn) [Example 114, 4-Hydroxy-piperidine-1-carboxylic acid 3-cyano-2-((E)-3-pyridin-3-yl-allanoylamino)-4,5,6,7-tetrahydro-benzo[b]thiophen-6-ylmethyl ester], for which the figures for the IC50 in test [1] and in test [2] were at least 100 µM and at most 0.501 µM, respectively.

With `N#Cc1c(NC(=O)/C=C/c2cccnc2)sc2c1CC[C@H](COC(=O)N1CCC(O)CC1)C2` [Example 114a, 4-Hydroxy-piperidine-1 - carboxylic acid (S)-3-cyano-2-((E)-3-pyridin-3-yl-allanoylamino)-4,5,6,7-tetrahydro-benzo[b]thiophen-6-ylmethyl ester], the IC50 was at least 100 µM in test [1] and at most 0.501 µM in test [2].

As to `N#Cc1c(NC(=O)/C=C/c2cccnc2)sc2c1CC[C@@H](COC(=O)N1CCC(O)CC1)C2` [Example 114b, 4-Hydroxy-piperidine-1-carboxylic acid (R)-3-cyano-2-((E)-3-pyridin-3-yl-allanoylamino)-4,5,6,7-tetrahydro-benzo[b]thiophen-6-ylmethyl ester], the IC50 is at least 100 µM in test [1] and at most 0.501 µM in test [2].

For the compound `COC1CN(C(=O)OCC2CCc3c(sc(NC(=O)/C=C/c4cccnc4)c3C#N)C2)C1` (stereo not drawn) [Example 115, 3-Methoxy-azetidine-1-carboxylic acid 3-cyano-2-((E)-3-pyridin-3-yl-allanoylamino)-4,5,6,7-tetrahydro-benzo[b]thiophen-6-ylmethyl ester], the IC50 was at least 100 µM in test [1] and 0.501 to 2 µM in test [2].

Consider `N#Cc1c(NC(=O)/C=C/c2cccnc2)sc2c1CCC(COC(=O)N1CCCO1)C2` (stereo not drawn) [Example 116, Isoxazolidine-2-carboxylic acid 3-cyano-2-((E)-3-pyridin-3-yl-allanoylamino)-4,5,6,7-tetrahydro-benzo[b]thiophen-6-ylmethyl ester], for which the IC50 in test [1] was at least 100 µM; in test [2], at most 0.501 µM.

On to `N#Cc1c(NC(=O)/C=C/c2cccnc2)sc2c1CCC(COC(=O)N1CCCCO1)C2` (stereo not drawn) [Example 117, [1,2]Oxazinane-2-carboxylic acid 3-cyano-2-((E)-3-pyridin-3-yl-allanoylamino)-4,5,6,7-tetrahydro-benzo[b]thiophen-6-ylmethyl ester], for which the IC50 in test [1] is at least 100 µM; in test [2], at most 0.501 µM.

Turning to `COC1CN(C(=O)OC2CCc3c(sc(NC(=O)/C=C/c4cccnc4)c3C#N)C2)C1` (stereo not drawn) [Example 118, 3-Methoxy-azetidine-1-carboxylic acid 3-cyano-2-((E)-3-pyridin-3-yl-allanoylamino)-4,5,6,7-tetrahydro-benzo[b]thiophen-6-yl ester], the IC50 in test [1] was at least 100 µM; in test [2], 0.501 to 2 µM.

For the compound `N#Cc1c(NC(=O)/C=C/c2cccnc2)sc2c1CCC(OC(=O)N1CCCO1)C2` (stereo not drawn) [Example 119, Isoxazolidine-2-carboxylic acid 3-cyano-2-((E)-3-pyridin-3-yl-allanoylamino)-4,5,6,7-tetrahydro-benzo[b]thiophen-6-yl ester], the IC50 is at least 100 µM in test [1] and at most 0.501 µM in test [2].

With `N#Cc1c(NC(=O)/C=C/c2cccnc2)sc2c1CCC(OC(=O)N1CCCCO1)C2` (stereo not drawn) [Example 120, [1,2]Oxazinane-2-carboxylic acid 3-cyano-2-((E)-3-pyridin-3-yl-allanoylamino)-4,5,6,7-tetrahydro-benzo[b]thiophen-6-yl ester], the IC50 was at least 100 µM in test [1] and at most 0.501 µM in test [2].

For `N#Cc1c(NC(=O)/C=C/c2cccnc2)sc2c1CCC(COC(=O)N1CC(F)C1)C2` (stereo not drawn) [Example 121, 3-Fluoro-azetidine-1-carboxylic acid 3-cyano-2-((E)-3-pyridin-3-yl-allanoylamino)-4,5,6,7-tetrahydro-benzo[b]thiophen-6-ylmethyl ester], the IC50 in test [1] is at least 100 µM; in test [2], at most 0.501 µM.

With `N#Cc1c(NC(=O)/C=C/c2cccnc2)sc2c1CCC(COC(=O)N1CC[C@@H](O)[C@@H](O)C1)C2` (stereo partly drawn) [Example 122, cis-3-, 4-Dihydroxy-piperidine-1-carboxylic acid 3-cyano-2-((E)-3-pyridin-3-yl-allanoylamino)-4,5,6,7-tetrahydro-benzo[b]thiophen-6-ylmethyl ester], the IC50 in test [1] is at least 100 µM; in test [2], at most 0.501 µM.

For `CN(CC(O)CO)C(=O)OCC1CCc2c(sc(NC(=O)/C=C/c3cccnc3)c2C#N)C1` (stereo not drawn) [Example 123, (2,3-Dihydroxy-propyl)-methyl-carbamic acid 3-cyano-2-((E)-3-pyridin-3-yl-allanoylamino)-4,5,6,7-tetrahydro-benzo[b]thiophen-6-ylmethyl ester], the IC50 in test [1] is at least 100 µM; in test [2] it was 0.501 to 2 µM.

(Values after patent US20110044938A1 (NYCOMED GMBH, priority 2006, published 2011).)
